{"source": "patent US20240208898A1", "about": "“ENAMINE N-OXIDES: SYNTHESIS AND APPLICATION TO HYPOXIA-RESPONSIVE PRODRUGS AND IMAGING AGENTS” (DANA-FARBER CANCER INSTITUTE, INC., priority 2021, published 2024)", "key": {"[1]": {"experiment": "Assay evaluating the importance of enamine N-oxide unsaturation", "assay_type": "physicochemical", "details": "reductants B2(OH)4 or Fe^2+, 100 mM HEPES, pH 7.4, HPLC", "method": "Enamine N-oxide 6 or alkyl N-oxide S4 (50 μL, 4 mM in water; 200 μM final concentration) were added to a HEPES buffered solution (750 μL, 100 mM HEPES, pH 7.4; 1 mL final volume) in an HPLC vial. N-oxide reduction was initiated by adding a solution of tetrahydroxydiboron (200 μL, 200 nmol, 1 equiv, 1 mM in ethanol) and the resulting solution was incubated at room temperature. After 1 hour, solutions were analyzed by HPLC (C18 column, 4.6×50 mm, 2.4 μm particle size, 1 mL/minute flow rate, eluent: gradient H2O+0.1% TFA (1 minute), gradient 0→100% MeCN/H2O+0.1% TFA (4 minutes), MeCN+0.1% TFA (1 minute)). p-Cresol was quantified by its absorbance at 280 nm."}, "[2]": {"experiment": "Degradation studies of isolated enamine N-oxides in solvent at 60° C.", "assay_type": "physicochemical", "details": "6 hours, NMR", "method": "Degradation studies were performed using isolated enamine N-oxides (5:5′, 15:1). An LC-MS vial was charged with a 0.1 M solution of enamine N-oxides (23.9 mg, 100 μmol) in the reaction solvent of interest and heated to 60° C. for 6 hours. After heating, the reaction mixture was concentrated under reduced pressure and dissolved in CDCl3. The amounts of enamine N-oxides (5 and 5′) and p-fluorophenol (4) were determined by ^1H and ^19F-NMR integrations using benzotrifluoride as an internal standard. Regioisomer ratios in different solvents were determined by ^1H-NMR integrations of vicinal versus geminal olefinic protons."}, "[3]": {"experiment": "Assay evaluating the stability of enamine N-oxides to metal cations", "assay_type": "physicochemical", "details": "200 μM, 2 mM cations, 1 h, room temperature, 100 mM HEPES pH 7.4; Fe^2+ with 10 mM sodium dithionite", "method": "Enamine N-oxide 3a (50 μL, 4 mM in water; 200 μM final concentration) was added to a HEPES buffered solution (946 μL, 100 mM HEPES, pH 7.4; 1 mL final volume) in an HPLC vial. A solution of metal cation (4 μL, 500 mM in water, 2 mM final concentration) was then added and the solution was incubated at room temperature. After 1 hour, solutions were analyzed by HPLC (C18 column, 4.6×50 mm, 2.4 μm particle size, 1 mL/minute flow rate, eluent: gradient H2O+0.1% TFA (1 minute), gradient 0→100% MeCN/H2O+0.1% TFA (4 minutes), MeCN+0.1% TFA (1 minute)). p-Cresol was quantified by its absorbance of 280 nm.\nThe following cations were assayed using this procedure: sodium chloride, potassium chloride, calcium chloride, magnesium chloride, manganese (II) chloride, cobalt (II) sulfate, zinc (II) chloride, nickel (II) acetate, and iron (III) chloride.\nFor iron (II) sulfate, a solution of iron (II) sulfate (2 μL, 1 M in 1 N HCl; 2 mM final concentration) was added followed by a solution of sodium dithionite (10 μL, 1 M in 1 N NaOH; 10 mM final concentration)."}, "[4]": {"experiment": "Thermal decomposition of enamine N-oxide (Cope elimination)", "assay_type": "physicochemical", "details": "60° C. in CDCl3 for 1 h", "method": "A 1-dram vial was charged with enamine N-oxide S1 (90.0 mg, 179 μmol, 1 equiv) and dissolved in chloroform-d (1.79 mL). The reaction vial was flushed with nitrogen, sealed with a cap and Parafilm, and heated to 60° C. After 1 hour, the oil bath was removed and the reaction was cooled to room temperature. The reaction mixture was purified by flash column chromatography on silica gel (eluent: 5% CMA in chloroform). Fractions containing the desired compound were combined and the solvent was removed under reduced pressure at 0° C. with a rotary evaporator to provide the product S2 (14.9 mg, 34%) as an off-white solid. ^1H NMR (500 MHz, CDCl3, 25° C.): δ 7.94 (d, J=8.3, 1H), 7.86 (d, J=7.3, 1H), 7.79 (d, J=7.9, 1H), 7.55-7.35 (m, 4H), 7.31 (d, J=9.6, 1H), 6.16 (dd, J=36.1, 9.7, 1H), 4.08 (d, J=14.0, 2H), 3.65 (s, 3H). ^13C NMR (126 MHz, CDCl3, 25° C.): δ 165.7 (d, J=277.1), 134.2, 132.0, 130.7 (d, J=3.0), 130.4 (d, J=3.2), 129.1, 128.6, 128.1, 126.8, 126.1, 125.7, 123.6, 100.2 (d, J=8.1), 52.6, 36.5 (d, J=26.2). ^19F NMR (471 MHz, CDCl3, 25° C.): δ −89.5. FTIR (thin film) cm^−1: 2922 (m), 2855 (w), 1662 (m), 1569 (w), 1408 (m), 1140 (s), 779 (s). HRMS (ESI) (m/z): calc'd for C15H15FNO [M+H]^+: 244.1132, found: 244.1129. TLC (5% CMA/chloroform), Rf: 0.30 (UV, KMnO4).\nA 1-dram vial was charged with enamine N-oxide S1 (90.0 mg, 179 μmol, 1 equiv) and dissolved in chloroform-d (1.79 mL). […]"}, "[5]": {"experiment": "Nucleophilic trapping experiment with benzyl mercaptan", "assay_type": "physicochemical", "details": "benzyl mercaptan (10 equiv), room temperature", "method": "A round-bottom flask was charged with (E)-N,N-diethyl-4-phenyl-3-(p-tolyloxy)but-1-en-1-amine oxide (S6, 26.0 mg, 79.8 μmol, 1 equiv) and dissolved with chloroform-d (773 μL) at room temperature. Benzylmercaptan (93.7 μL, 798 μmol, 10.0 equiv) was then added via syringe. After 5 minutes, analysis by TLC indicated no reduction by benzylmercaptan. Solid bis(pinacolato)diboron (20.3 mg, 79.8 μmol, 1.00 equiv) was then added in one portion at room temperature. After 15 minutes, the reaction was directly loaded onto a silica gel column. The reaction mixture was purified by flash column chromatography (eluent: 100% chloroform) to provide aldehyde S7 (20.2 mg, 94%) as an off-white solid. ^1H NMR (500 MHz, CDCl3, 25° C.): δ 9.51 (dd, J=2.5, 1.4 Hz, 1H), 7.33-7.18 (m, 8H), 7.14-7.08 (m, 2H), 3.68 (q, J=13.4, 10.4 Hz, 2H), 3.20 (tdd, J=8.1, 6.5, 5.6 Hz, 1H), 2.97 (dd, J=13.7, 6.4 Hz, 1H), 2.78 (dd, J=13.8, 8.2 Hz, 1H), 2.60-2.40 (m, 2H). ^13C NMR (126 MHz, CDCl3, 25° C.): δ 200.7, 138.6, 138.1, 129.6, 129.2, 128.8, 128.7, 127.4, 127.0, 47.8, 42.3, 40.5, 36.1. FTIR (thin film) cm^−1: 3026 (w), 2922 (w), 1722 (s), 1494 (m), 1453 (m), 700 (s). HRMS (ESI) (m/z): calc'd for C17H19OS [M+H]^+: 271.1151, found: 271.1149. TLC (100% chloroform), Rf: 0.45 (UV, KMnO4)."}, "human liver microsomes": {"test_system": "human liver microsomes", "experiment": "In vitro microsomal reduction assay", "assay_type": "in vitro ADME", "details": "hypoxic vs normoxic, 2-nitroaniline released, absorbance at λ=412 nm", "method": "All reactions were prepared and carried out in a semi-micro spectrophotometer quartz cell fitted with a septum screw cap (Starna Cells). For anaerobic conditions, all solutions were degassed for 30 minutes by sparging with nitrogen. Cells were maintained under anaerobic conditions using nitrogen lines connected to a nitrogen gas manifold or using a nitrogen-filled balloon. In experiments requiring normoxic conditions, the quartz cells were left open to ambient atmosphere. Unless otherwise stated, reactions were prepared as follows. A solution of human liver microsomes (10 μL, 20 mg/mL in phosphate buffer, pH 7.4, Corning; 200 μg/mL final concentration) followed by a solution of NADPH (16.7 μL, 60 mM in 10 mM NaOH solution; 1 mM final concentration) was added to a phosphate buffered solution ([…], 100 mM phosphate buffer, pH 7.4; 1 mL final volume) at room temperature. After 1 hour, reactions were initiated by the addition of a stock solution of the 2-nitroaniline enamine N-oxide probes 32a-f (50 μL, 4 mM in phosphate buffer, pH 7.4; 200 μM final concentration). […]\nHeat-inactivated microsomes were prepared for control experiments by heating a solution of human liver microsomes (20 mg/mL in phosphate buffer, pH 7.4, Corning) to 45° C. for 30 minutes. […]"}, "[6]": {"experiment": "Enamine N-oxides with reducing agents", "assay_type": "physicochemical", "details": "probe 200 μM", "method": "A stock solution of 2-nitroaniline enamine N-oxide probe 32c (50 μL, 4 mM in 100 mM phosphate buffer, pH 7.4; 200 μM final concentration) was added to a phosphate buffered solution (850 μL, 100 mM phosphate, pH 7.4; 1 mL final volume) in a semi-micro quartz cell open to ambient atmosphere. A solution of glutathione (100 μL, 50 mM in phosphate buffer, pH 7.4; 5 mM final concentration) or cysteine (100 μL, 50 mM in phosphate buffer, pH 7.4; 5 mM final concentration) or tetrahydroxydiboron (100 μL, […] in methanol; 200 μM final concentration) were added to the solution. Reactions with glutathione or cysteine were incubated at 37° C. The reaction with tetrahydroxydiboron was carried out at room temperature. Wavelength scans (400-550 nm) were recorded at several time points (0, 1, and 2 hours)."}}, "data": [{"smiles": "CC[N+]([O-])(CC)CCCOc1ccc(C)cc1", "note": "[alkyl N-oxide S4, N,N-diethyl-3-(p-tolyloxy)propan-1-amine oxide]", "values": [{"measurement": "release of p-cresol upon reduction", "setting": "[1]", "value": "did not lead to the release of p-cresol"}]}, {"smiles": "CC[N+]([O-])(/C=C/COc1ccc(F)cc1)CC", "note": "[enamine N-oxide 5, (E)-N,N-diethyl-3-(4-fluorophenoxy)prop-1-en-1-amine oxide]", "values": [{"measurement": "Yield (%) 4 (p-fluorophenol formed)", "setting": "[2]; CHCl3, 0.1 M", "value": 29, "unit": "%"}, {"measurement": "Yield (%) 5 + 5′ (enamine N-oxide remaining)", "setting": "[2]; CHCl3, 0.1 M", "value": 45, "unit": "%"}, {"measurement": "Yield (%) 4 (p-fluorophenol formed)", "setting": "[2]; TFE, 0.1 M", "value": "<1", "unit": "%"}, {"measurement": "Yield (%) 5 + 5′ (enamine N-oxide remaining)", "setting": "[2]; TFE, 0.1 M", "value": 96, "unit": "%"}]}, {"smiles": "CC[N+]([O-])(/C=C/COc1ccc(C)cc1)CC", "note": "[enamine N-oxide 6]", "values": [{"measurement": "release of p-cresol upon reduction", "setting": "[1]", "value": "led to the release of p-cresol"}, {"measurement": "stability in the presence of different metal cations", "setting": "[3]", "value": "Only Fe^2+ was capable of reducing enamine N-oxides"}]}, {"smiles": "C[N+]([O-])(/C=C/C(F)(F)Cc1cccc2ccccc12)CCCCC(=O)NCc1ccc2ccccc2c1", "note": "(stereo not shown) [enamine N-oxide S1, (E)-N-(3,3-difluoro-4-(naphthalen-1-yl)but-1-en-1-yl)-N-methyl-5-((naphthalen-2-ylmethyl)amino)-5-oxopentan-1-amine oxide]", "values": [{"measurement": "thermal decomposition", "setting": "[4]", "value": "two new products were isolated in addition to the starting material"}]}, {"smiles": "CC[N+]([O-])(/C=C/C(Cc1ccccc1)Oc1ccc(C)cc1)CC", "note": "(stereo not shown) [enamine N-oxide S6, (E)-N,N-diethyl-4-phenyl-3-(p-tolyloxy)but-1-en-1-amine oxide]", "values": [{"measurement": "reduction in the absence of diboron", "setting": "[5]", "value": "not reduced in the absence of diboron"}]}, {"smiles": "CC[N+]([O-])(/C=C/COC(=O)Nc1ccccc1[N+](=O)[O-])CC", "note": "[probe 32c, (E)-N,N-diethyl-3-(((2-nitrophenyl)carbamoyl)oxy)prop-1-en-1-amine oxide]", "values": [{"measurement": "enhancement in the initial rate of reduction under hypoxic conditions", "setting": "human liver microsomes", "value": 21, "unit": "fold"}, {"measurement": "reactivity toward cysteine", "setting": "[6]; 5 mM cysteine, phosphate buffer pH 7.4, 37° C., over 2 h", "value": "unreactive"}, {"measurement": "reactivity toward glutathione", "setting": "[6]; 5 mM glutathione (GSH), phosphate buffer pH 7.4, 37° C., over 2 h", "value": "unreactive"}, {"measurement": "time until probe is fully reduced by diboron", "setting": "[6]; B2(OH)4 1 equiv 200 μM, room temperature", "value": "≤ 10", "unit": "min"}]}]}
